Data: the supplement of paper PMC8671470

How the values were obtained:
Details in all cases: 72 h
[1] = system: BV-173
Method in brief: (§1)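 For the IC50, dose–response curves were fitted with a log-logistic model. The data came from fifteen myeloid leukaemia cell lines grown in RPMI 1640 at densities in the linear growth range and incubated in 384-well plates for 72 h at 37 °C under 5% CO2. Doses were five tenfold steps from 1 to 10,000 nM in duplicate, and luminescent ATP viability was normalised to vehicle and to a positive control at 10 µM before four-parameter fitting.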

[2] = system: HEL
Method in brief: as §1

[3] = system: HL-60
Method in brief: as §1

[4] = system: K-562
Method in brief: as §1

[5] = system: KG-1
Method in brief: as §1

[6] = system: KU-812
Method in brief: as §1

[7] = system: LAMA-84
Method in brief: as §1

[8] = system: ML-2
Method in brief: as §1

[9] = system: MOLM-13
Method in brief: as §1

[10] = system: MV4-11
Method in brief: as §1

[11] = system: Mono-Mac-6
Method in brief: as §1

[12] = system: NOMO-1
Method in brief: as §1

[13] = system: SHI-1
Method in brief: as §1

[14] = system: THP-1
Method in brief: as §1

[15] = system: myeloid leukemia patient primary cells Pat.10; assay: cell viability (% survival relative to DMSO control); higher = less cytotoxic
Method in brief: (§2)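 Seventy compounds were pre-printed on 384-well plates at five tenfold concentrations between 1 and 10,000 nM, in duplicate. Thawed mononuclear cells purified by Ficoll from AML or CML patients were added at 10,000 cells/well in RPMI 1640 with 10% FBS for 72 h. Viability by CellTiter-Glo was normalised to DMSO and 10 μM proteasome-inhibitor wells. Where stated, area under the curve was taken from log-logistic fits made with the drc and PharmacoGx R packages, each fit having four parameters.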

[16] = system: myeloid leukemia patient primary cells Pat.11; assay: as above
Method in brief: as §2

[17] = system: myeloid leukemia patient primary cells Pat.12; assay: as above
Method in brief: as §2

[18] = system: myeloid leukemia patient primary cells Pat.13; assay: as above
Method in brief: as §2

[19] = system: myeloid leukemia patient primary cells Pat.14; assay: as above
Method in brief: as §2

[20] = system: myeloid leukemia patient primary cells Pat.15; assay: as above
Method in brief: as §2

[21] = system: myeloid leukemia patient primary cells Pat.1; assay: as above
Method in brief: as §2

[22] = system: myeloid leukemia patient primary cells Pat.2; assay: as above
Method in brief: as §2

[23] = system: myeloid leukemia patient primary cells Pat.3; assay: as above
Method in brief: as §2

[24] = system: myeloid leukemia patient primary cells Pat.4; assay: as above
Method in brief: as §2

[25] = system: myeloid leukemia patient primary cells Pat.5; assay: as above
Method in brief: as §2

[26] = system: myeloid leukemia patient primary cells Pat.6; assay: as above
Method in brief: as §2

[27] = system: myeloid leukemia patient primary cells Pat.7; assay: as above
Method in brief: as §2

[28] = system: myeloid leukemia patient primary cells Pat.8; assay: as above
Method in brief: as §2

[29] = system: myeloid leukemia patient primary cells Pat.9; assay: as above
Method in brief: as §2

[30] = system: myeloid leukemia patient primary cells Pat.3; assay: area under dose-response curve (viability, 1 nM-10 uM) (fraction (0-1)); higher = more sensitive
Method in brief: as §2

O=C(Cc1cccc(OC(F)(F)F)c1)Nc1ccc(CCCCc2nnc(NC(=O)Cc3ccccn3)s2)nn1 [CB-839]
Details	IC50 (cell viability) [nM]	area under dose-response curve
[1]	118	–
[2]	> 10000	–
[3]	637	–
[4]	> 10000	–
[5]	638	–
[6]	> 10000	–
[7]	9930	–
[8]	> 10000	–
[9]	> 10000	–
[10]	619	–
[11]	> 10000	–
[12]	> 10000	–
[13]	> 10000	–
[14]	> 10000	–
[30]	–	0.702

cell viability [%]
Details	1 nM	10 nM	100 nM	1000 nM	10000 nM
[15]	52.5	47.9	24.4	44.8	68.9
[16]	94.1	88.4	85.1	74.3	90.7
[17]	86.8	89.6	88	80.1	99.4
[18]	85.3	88.9	69	64.6	84
[19]	75.6	69.4	39.7	41.4	78.6
[20]	92.4	89.2	73.2	40.2	36.6
[21]	84.7	81.3	46.7	56.4	59.1
[22]	86.8	91.3	78.1	87	88.3
[23]	67.7	39.5	11.1	9.36	14.5
[24]	92	91.5	57.4	61	75.4
[25]	17.1	53.9	2.39	5.69	19.5
[26]	91.7	94.9	79.1	84.9	90.9
[27]	58.6	74.7	6.64	21.2	38.3
[28]	82.7	86.7	76.8	87.8	81
[29]	62.2	35.3	1.99	7.13	14.1

C=C1NC(=O)c2cc(CN(C)c3ccc(C(=O)N[C@@H](CCC(=O)O)C(=O)O)s3)ccc2N1 [Raltitrexed]
Details	IC50 (cell viability) [nM]	area under dose-response curve
[1]	52.4	–
[2]	37.6	–
[3]	422	–
[4]	201	–
[5]	> 10000	–
[6]	56	–
[7]	42.8	–
[8]	122	–
[9]	47.9	–
[10]	91.9	–
[11]	45.2	–
[12]	82.9	–
[13]	562	–
[14]	193	–
[30]	–	0.324

cell viability [%]
Details	1 nM	10 nM	100 nM	1000 nM	10000 nM
[15]	54.5	74.6	96.5	> 100	89.9
[16]	93.9	97.3	99.3	97.4	99.2
[17]	86.9	96.9	> 100	95.9	98.6
[18]	> 100	85.4	> 100	92.6	95.5
[19]	71	94.5	> 100	90.2	92.1
[20]	81.4	90	89.2	95.1	> 100
[21]	79.1	96.9	99.9	93.7	> 100
[22]	95.5	95	> 100	99.7	98.5
[23]	81.1	> 100	58.5	38.7	58.7
[24]	80.7	> 100	94.1	97.6	> 100
[25]	43.3	90.4	> 100	87	92.7
[26]	90.3	98.1	> 100	> 100	> 100
[27]	64.8	> 100	97.1	85.1	> 100
[28]	90.8	85.5	87.2	87.3	> 100
[29]	40.5	84	81.9	54.5	72.8

O=C(/C=C/c1cccnc1)NCCCCC1CCN(C(=O)c2ccccc2)CC1 [Daporinad]
Details	IC50 (cell viability) [nM]	area under dose-response curve
[1]	< 1	–
[2]	2.33	–
[3]	1.47	–
[4]	3.78	–
[5]	3.63	–
[6]	3.34	–
[7]	2.18	–
[8]	1.39	–
[9]	3.69	–
[10]	< 1	–
[11]	20.6	–
[12]	< 1	–
[13]	> 10000	–
[14]	> 10000	–
[30]	–	0.995

cell viability [%]
Details	1 nM	10 nM	100 nM	1000 nM	10000 nM
[15]	28.5	2.87	< 0	2.87	< 0
[16]	94.7	10.9	1.05	2.36	0.862
[17]	91.5	32.2	8.2	5.73	3.19
[18]	95	34.4	9.16	3.22	7.15
[19]	17.1	1.32	2.09	< 0	0.671
[20]	80.9	24.2	0.879	1.32	0.659
[21]	98.2	64.2	20.9	16.9	11
[22]	91.1	30.5	11.7	9.71	6.63
[23]	3.7	2.72	2.93	3.29	2.8
[24]	38.2	3.86	2.67	2.08	0.709
[25]	0.265	< 0	9.08	< 0	< 0
[26]	60.3	51.7	24.6	25.6	19.4
[27]	6.69	< 0	< 0	< 0	< 0
[28]	98.3	11	4.49	10.4	0.503
[29]	0.773	< 0	0.492	0.773	0.773

CCC(CC#N)OC(=O)N[C@@H](C)c1cccc(NC(=O)Nc2ccc(-c3cnco3)c(OC)c2)c1 (stereo in doubt) [AVN-944]
Details	IC50 (cell viability) [nM]	area under dose-response curve
[1]	118	–
[2]	151	–
[3]	182	–
[4]	55.8	–
[5]	173	–
[6]	94.9	–
[7]	73.6	–
[8]	66.8	–
[9]	44.9	–
[10]	78.1	–
[11]	151	–
[12]	451	–
[13]	137	–
[14]	1900	–
[30]	–	0.44

cell viability [%]
Details	1 nM	10 nM	100 nM	1000 nM	10000 nM
[15]	> 100	66.9	41.6	58.3	4.94
[16]	> 100	99.4	90.8	86.2	60.6
[17]	98.7	> 100	87.7	> 100	92.9
[18]	91.5	93.1	90.6	63.4	36.5
[19]	88.2	97.5	84.9	63.5	34.3
[20]	94.9	> 100	83.3	89.7	71.1
[21]	90.9	85.7	87.2	82.4	65.8
[22]	> 100	98.9	81.5	81.8	83.1
[23]	> 100	80.4	51.2	29.3	20
[24]	86	90.7	92.9	63	33.4
[25]	56.9	45.4	40.4	9.12	5.69
[26]	97.1	90.8	92.9	87.4	64
[27]	98.1	91.5	25.3	17.6	< 0
[28]	82.5	92.3	86.4	68.7	58.1
[29]	74.9	72.1	50	15.9	1.99
